Reference: patent US20020164333A1, “Bifunctional molecules and vectors complexed therewith for targeted gene delivery” (The Scripps Research Institute, priority 2000, published 2002)

System: M21-L12 melanoma cells
Experiment: Ad-mediated gene delivery after pretreatment of cells with PI3K inhibitors
Type: cell-based, human
Procedure: Efficient Ad internalization via αv integrins requires activation of PI3K, a key cellular signaling molecule. […] Ad mediated gene delivery was analyzed 48 hours post infection.

| Structure (SMILES) | inhibition of Ad-mediated gene delivery (cells pretreated 30 min with wortmannin (30 nM) or LY292004 (20 μM) before Ad.RSV.βgal complexed with D or DT, 48 hours post infection) [%] | inhibition at 0.03 µM (Homo sapiens, read-out: inhibition of Ad-mediated gene delivery) [%] |
| --- | --- | --- |
| O=c1cc(N2CCOCC2)oc2c(-c3ccccc3)cccc12 [LY294002] | ~50 | – |
| COC[C@H]1OC(=O)c2coc3c2[C@@]1(C)C1=C(C3=O)[C@@H]2CCC(=O)[C@@]2(C)C[C@H]1OC(C)=O [Wortmannin, wortmannin] | – | ~70 |
